Assay: Phase 1 clinical pharmacokinetics in plasma
Format: in vivo, human
Conditions: for AUC0-24, Mean (CV%) / AUC0-t, Mean (CV%) / CLz/F, Mean (CV%) / Cmax, Mean (CV%) / Tmax, median [Min-Max] / Vz/F, Mean (CV%) / t1/2z, Mean (CV%): Single dose; for AUC0-24,ss, Mean (CV%) / Cmax,ss, Mean (CV%) / Tmax,ss, median [Min-Max]: Steady State

Compound: COc1cc2c(Nc3ccc(Br)cc3F)ncnc2cc1OCCCCN(C)C.Cl.Cl [HA121-28, N-(4-bromo-2-fluorophenyl)-7-(4-(dimethylamino)butoxy)-6-methoxy quinazolin-4-amine dihydrochloride]
- AUC0-24, Mean (CV%) (25 mg (N=1)): 237.1 (-) h*ng/mL
- AUC0-t, Mean (CV%) (25 mg (N=1)): 906.8 (-) h*ng/mL
- CLz/F, Mean (CV%) (25 mg (N=1)): 18.5 (-) L/h
- Cmax, Mean (CV%) (25 mg (N=1)): 15.6 (-) ng/mL
- Tmax, median [Min-Max] (25 mg (N=1)): 4 [4,4] h
- Vz/F, Mean (CV%) (25 mg (N=1)): 2971.7 (-) L
- t1/2z, Mean (CV%) (25 mg (N=1)): 111.2 (-) h
- AUC0-24, Mean (CV%) (50 mg (N=1)): 283.0 (-) h*ng/mL
- AUC0-t, Mean (CV%) (50 mg (N=1)): 1645.1 (-) h*ng/mL
- CLz/F, Mean (CV%) (50 mg (N=1)): 19.5 (-) L/h
- Cmax, Mean (CV%) (50 mg (N=1)): 15.6 (-) ng/mL
- Tmax, median [Min-Max] (50 mg (N=1)): 24 [24,24] h
- Vz/F, Mean (CV%) (50 mg (N=1)): 3137.7 (-) L
- t1/2z, Mean (CV%) (50 mg (N=1)): 111.6 (-) h
- AUC0-24, Mean (CV%) (100 mg (N=4)): 725.9 (306.5) h*ng/mL
- AUC0-t, Mean (CV%) (100 mg (N=4)): 3460.0 (1126.6) h*ng/mL
- CLz/F, Mean (CV%) (100 mg (N=4)): 18.8 (4.8) L/h
- Cmax, Mean (CV%) (100 mg (N=4)): 46.4 (27.0) ng/mL
- Tmax, median [Min-Max] (100 mg (N=4)): 6 [4-24] h
- Vz/F, Mean (CV%) (100 mg (N=4)): 2303.3 (37.5) L
- t1/2z, Mean (CV%) (100 mg (N=4)): 89.1 (23.8) h
- AUC0-24, Mean (CV%) (200 mg (N=4)): 1884.6 (514.6) h*ng/mL
- AUC0-t, Mean (CV%) (200 mg (N=4)): 7763.0 (2539.2) h*ng/mL
- CLz/F, Mean (CV%) (200 mg (N=4)): 21.6 (7.0) L/h
- Cmax, Mean (CV%) (200 mg (N=4)): 115.5 (32.7) ng/mL
- Tmax, median [Min-Max] (200 mg (N=4)): 8 [8-10] h
- Vz/F, Mean (CV%) (200 mg (N=4)): 2627.1 (1416.0) L
- t1/2z, Mean (CV%) (200 mg (N=4)): 80.7 (15.3) h
- AUC0-24, Mean (CV%) (300 mg (N=4)): 3037.9 (854.0) h*ng/mL
- AUC0-t, Mean (CV%) (300 mg (N=4)): 11276.6 (2463.8) h*ng/mL
- CLz/F, Mean (CV%) (300 mg (N=4)): 19.1 (3.8) L/h
- Cmax, Mean (CV%) (300 mg (N=4)): 193.0 (70.1) ng/mL
- Tmax, median [Min-Max] (300 mg (N=4)): 8 [2-8] h
- Vz/F, Mean (CV%) (300 mg (N=4)): 2307.1 (724.2) L
- t1/2z, Mean (CV%) (300 mg (N=4)): 83.1 (16.6) h
- AUC0-24, Mean (CV%) (450 mg (N=7)): 6271.3 (2275.9) h*ng/mL
- AUC0-t, Mean (CV%) (450 mg (N=7)): 20218.4 (7301.9) h*ng/mL
- CLz/F, Mean (CV%) (450 mg (N=7)): 16.2 (6.6) L/h
- Cmax, Mean (CV%) (450 mg (N=7)): 374.7 (140.6) ng/mL
- Tmax, median [Min-Max] (450 mg (N=7)): 8 [4-8] h
- Vz/F, Mean (CV%) (450 mg (N=7)): 2009.5 (706.2) L
- t1/2z, Mean (CV%) (450 mg (N=7)): 87.6 (11.7) h
- AUC0-24, Mean (CV%) (600 mg (N=5)): 8403.6 (4593.9) h*ng/mL
- AUC0-t, Mean (CV%) (600 mg (N=5)): 26818.4 (14650.1) h*ng/mL
- CLz/F, Mean (CV%) (600 mg (N=5)): 19.7 (8.1) L/h
- Cmax, Mean (CV%) (600 mg (N=5)): 500.0 (224.3) ng/mL
- Tmax, median [Min-Max] (600 mg (N=5)): 8 [4-8] h
- Vz/F, Mean (CV%) (600 mg (N=5)): 2163.4 (719.0) L
- t1/2z, Mean (CV%) (600 mg (N=5)): 80.8 (19.4) h
- AUC0-24, Mean (CV%) (800 mg (N=3)): 9721.8 (2598.4) h*ng/mL
- AUC0-t, Mean (CV%) (800 mg (N=3)): 33030.6 (10820.6) h*ng/mL
- CLz/F, Mean (CV%) (800 mg (N=3)): 19.9 (9.2) L/h
- Cmax, Mean (CV%) (800 mg (N=3)): 610.0 (200.1) ng/mL
- Tmax, median [Min-Max] (800 mg (N=3)): 8 [4-8] h
- Vz/F, Mean (CV%) (800 mg (N=3)): 2001.6 (613.2) L
- t1/2z, Mean (CV%) (800 mg (N=3)): 74.1 (24.6) h
- AUC0-24,ss, Mean (CV%) (25 mg (N=1)): 1629.1 (-) h*ng/mL
- Cmax,ss, Mean (CV%) (25 mg (N=1)): 77.2 (-) ng/mL
- Tmax,ss, median [Min-Max] (25 mg (N=1)): 2 [2,2] h
- AUC0-24,ss, Mean (CV%) (50 mg (N=1)): 2728.6 (-) h*ng/mL
- Cmax,ss, Mean (CV%) (50 mg (N=1)): 122.0 (-) ng/mL
- Tmax,ss, median [Min-Max] (50 mg (N=1)): 4 [4,4] h
- AUC0-24,ss, Mean (CV%) (100 mg (N=4)): 4785.0 (1808.2) h*ng/mL
- Cmax,ss, Mean (CV%) (100 mg (N=4)): 219.0 (75.2) ng/mL
- Tmax,ss, median [Min-Max] (100 mg (N=4)): 8 [4-8] h
- AUC0-24,ss, Mean (CV%) (200 mg (N=4)): 11332.7 (4944.0) h*ng/mL
- Cmax,ss, Mean (CV%) (200 mg (N=4)): 550.0 (229.2) ng/mL
- Tmax,ss, median [Min-Max] (200 mg (N=4)): 8 [8-8] h
- AUC0-24,ss, Mean (CV%) (300 mg (N=4)): 12969.9 (1048.1) h*ng/mL
- Cmax,ss, Mean (CV%) (300 mg (N=4)): 635.3 (30.1) ng/mL
- Tmax,ss, median [Min-Max] (300 mg (N=4)): 4 [4-4] h
- AUC0-24,ss, Mean (CV%) (450 mg (N=7)): 18460.0 (3291.4) h*ng/mL
- Cmax,ss, Mean (CV%) (450 mg (N=7)): 945.8 (189.0) ng/mL
- Tmax,ss, median [Min-Max] (450 mg (N=7)): 6 [4-8] h
- AUC0-24,ss, Mean (CV%) (600 mg (N=5)): 27965.4 (13872.8) h*ng/mL
- Cmax,ss, Mean (CV%) (600 mg (N=5)): 1453.0 (825.0) ng/mL
- Tmax,ss, median [Min-Max] (600 mg (N=5)): 4 [4-8] h
